The values that follow come from ChEMBL document CHEMBL1148415, “Effects of C2-alkylation, N-alkylation, and N,N'-dialkylation on the stability and estrogen receptor interaction of (4R,5S)/(4S,5R)-4,5-bis(4-hydroxyphenyl)-2-imidazolines” (J Med Chem, 2004).

pEC50: −log10 of the molar value.

The nature of data set [1]: Half life at 7.4 pH. Type of data set: ADME. Conditions: pH 7.4.
The nature of data set [2]: Rate constant at 7.4 pH. Conditions: pH 7.4. It is filed as ADME.
Data set [3] can be described thus: Half life at 7.4 pH; No decomposition was observed within 55h. Type of data set: ADME. Conditions: pH 7.4, 55 h.
Data set [4] is described as follows: Rate constant at 7.4 pH; No decomposition was observed within 55h. It is filed as ADME. Conditions: pH 7.4, 55 h.
For a further data set, the target named is T1, Estrogen receptor (Homo sapiens, UniProt P03372).
T1 sequence (P03372 whole entry): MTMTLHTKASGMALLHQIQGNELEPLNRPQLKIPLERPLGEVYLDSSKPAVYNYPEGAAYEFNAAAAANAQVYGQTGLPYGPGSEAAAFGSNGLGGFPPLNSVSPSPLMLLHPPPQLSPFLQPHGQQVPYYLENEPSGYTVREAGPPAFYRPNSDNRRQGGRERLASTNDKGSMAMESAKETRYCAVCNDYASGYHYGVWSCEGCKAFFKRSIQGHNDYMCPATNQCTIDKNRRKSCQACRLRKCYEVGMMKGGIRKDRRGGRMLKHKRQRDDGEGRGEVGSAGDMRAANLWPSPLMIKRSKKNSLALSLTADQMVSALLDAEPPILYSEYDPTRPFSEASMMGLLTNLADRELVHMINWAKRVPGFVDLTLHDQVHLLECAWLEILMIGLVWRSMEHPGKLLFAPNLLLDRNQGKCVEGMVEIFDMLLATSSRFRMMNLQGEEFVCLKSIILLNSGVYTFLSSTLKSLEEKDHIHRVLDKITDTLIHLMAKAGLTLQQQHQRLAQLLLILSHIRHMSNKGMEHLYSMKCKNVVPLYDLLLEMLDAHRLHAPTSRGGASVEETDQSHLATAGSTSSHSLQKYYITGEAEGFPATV
Briefly: Concentration required to activate luciferase expression in MCF-7-2a cells. Type of data set: functional, cell-based.

As a reminder, the half-life is the time in which the quantity being followed falls by half. The low end stands for fast loss, the high end for slow loss. In turn, `Oc1ccc([C@H]2N=CN[C@H]2c2ccc(O)cc2)cc1` gave a half-life in data set [1] of 6.36 h. In data set [2], this molecule had a k obs of 0.122 h⁻¹. For the molecule `OCCC1=N[C@H](c2ccc(O)cc2Cl)[C@H](c2ccc(O)cc2Cl)N1`, in data set [3], the T1/2 result is reported as “Stable”. For the same molecule, the k obs result in data set [4] was “Stable”.

Consider `COc1ccc([C@H]2N=CN[C@H]2c2ccc(OC)cc2Cl)c(Cl)c1`, for which the half-life in data set [1] was 4.58 h. In addition, the k obs in data set [2] amounted to 0.198 h⁻¹. One may read the pEC50 as −log10 of the EC50, conventionally taken in molar units. Regarding `N[C@H](c1ccc(O)cc1Cl)[C@@H](N)c1ccc(O)cc1Cl`, on Estrogen receptor, the pEC50 was 5.82. At Estrogen receptor, `CN1C=N[C@@H](c2ccc(O)cc2Cl)[C@H]1c1ccc(O)cc1Cl` gave a pEC50 of 6.52.

For the molecule `CN1C=[N+](C)[C@@H](c2ccc(O)cc2Cl)[C@H]1c1ccc(O)cc1Cl`, the pEC50 on Estrogen receptor is 6.11. As for `Oc1ccc([C@H]2N=CN[C@H]2c2c(Cl)cc(O)cc2Cl)c(Cl)c1`, the half-life in data set [1] is 13.4 h. Moreover, at Estrogen receptor, the pEC50 is 7.19. The k obs in data set [2] worked out at 0.052 h⁻¹. In the case of `CCCN1C=N[C@@H](c2ccc(O)cc2Cl)[C@H]1c1ccc(O)cc1Cl`, the pEC50 at Estrogen receptor was 6.82. Turning to `CCN1C=[N+](CC)[C@@H](c2ccc(O)cc2Cl)[C@H]1c1ccc(O)cc1Cl`, in data set [3], the T1/2 entry is “Stable”. The k obs entry in data set [4] is reported as “Stable”. For the same molecule, at Estrogen receptor, the pEC50 was 6.30.

At Estrogen receptor, `N[C@H](c1ccc(O)cc1Cl)[C@@H](NC=O)c1ccc(O)cc1Cl` gave a pEC50 of 5.52. The molecule `CCN1C=N[C@@H](c2ccc(O)cc2Cl)[C@H]1c1ccc(O)cc1Cl` showed a half-life in data set [1] of 154 h. On Estrogen receptor, this molecule gave a pEC50 of 7.82. In data set [2], this molecule yielded a k obs of 0.004 h⁻¹. In data set [1], `Oc1ccc([C@H]2NC=N[C@H]2c2ccc(O)cc2Cl)c(Cl)c1` had a half-life of 5.94 h. The molecule also showed a k obs in data set [2] of 0.15 h⁻¹. In the case of `CC1=N[C@@H](c2c(Cl)cc(O)cc2Cl)[C@@H](c2ccc(O)cc2Cl)N1`, the pEC50 on Estrogen receptor was 5.30.
